# Reference: patent US11149035B2, “Chemical compounds as H—PGDS inhibitors” (GlaxoSmithKline Intellectual Property Development Limited, priority 2017, dated 2021)
# Target: T1, haematopoietic prostaglandin D synthase (H-PGDS) (Homo sapiens, UniProt O60760)
# T1 construct: Full length human H-PGDS cDNA (Invitrogen Ultimate ORF IOH13026) was amplified by PCR; 6-His (N); TEV protease cleavage site (N); made in house; host or cells: E. coli BL21 (DE3*)
# Assay: H-PGDS RapidFire high throughput mass spectrometry assay (conversion of PGH2 to PGD2)
# Assay type: biochemical
# Conditions: 10 nM H-PGDS, PGH2 formed in situ by COX-2 from arachidonic acid; four parameter curve fit; read-out: Potency Range (mean pIC50) (converted)
# Method: The H-PGDS RapidFire™ mass spectrometric assay monitors conversion of prostaglandin H2 (PGH2) to prostaglandin D2 (PGD2) by haematopoietic prostaglandin D synthase (H-PGDS). In the assay format described here, the substrate (PGH2) is formed in situ by the action of cyclooxygenase-2 on arachidonic acid. This first step is set up to be fast, and generates a burst of PGH2 at ˜10 μM. The PGH2 is then further converted to PGD2 by the H-PGDS enzyme. […] Plates are then read on the RapidFire™ high throughput solid phase extraction system (Agilent) which incorporates a solid phase extraction step coupled to a triple quadrupole mass spectrometer (AB SCIEX). Relative levels of PGD2 and PGF2α, which acts as a surrogate for substrate, are measured and a percent conversion calculated. Inhibitors are characterised as compounds which lower the conversion of PGH2 to PGD2.
# Full length human H-PGDS cDNA (Invitrogen Ultimate ORF IOH13026) was amplified by PCR with the addition of a 5′ 6-His tag and TEV protease cleavage site. The PCR product was digested with NdeI and XhoI and ligated into pET22b+ (Merck Novagen®). Expression was carried out in E. coli strain BL21 (DE3*) using auto-induction Overnight Express™ Instant TB medium (Merck Novagen®) supplemented with 1% glycerol. The culture was first grown at 37° C. and the temperature was reduced to 25° C. when OD600 reached 2.0. Cells were harvested by centrifugation after a further 18 hours. 10 g of E. coli cell pellet was suspended to a total volume of 80 mL in lysis buffer (20 mM Tris-Cl pH 7.5, 300 mM NaCl, 20 mM imidazole, 5 mM β-mercaptoethanol, 10% glycerol). 1 mg/mL protease inhibitors (Protease Inhibitor Cocktail Set III, Merck Calbiochem®) and 1 mg/mL lysozyme were added to the cell suspension. The suspension was then sonicated for 5 min (UltraSonic Processor VCX 750, Cole-Parmer Instrument Co.) with a micro probe (50% amplitude, 10 sec on/off) and then centrifuged at 100,000 g for 90 minutes (at 4° C.). The supernatant was loaded onto a Ni-NTA HiTrap column (5 mL, GE Healthcare, pre-equilibrated in lysis buffer). The column was washed with 10 column volumes of lysis buffer and eluted with lysis buffer containing 500 mM imidazole. The pooled protein peak fractions were concentrated using a 10 kDa centrifugal filter at 3500 g and 4° C. (Amicon Ultra-15 centrifugal filter unit with Ultracel-10 membrane from Millipore). Further purification of the concentrated protein was carried out using gel filtration chromatography on a HiLoad 26/600 Superdex 75 preparative grade column (GE Healthcare Life Sciences) using 50 mM Tris pH 7.5, 50 mM NaCl, 1 mM dithiothreitol, 1 mM MgCl2. Fractions containing the protein were pooled, concentrated as described above, and stored at −80° C.
# The full length human COX-2 gene (accession number L15326) was amplified by PCR to generate an EcoRI—HindIII fragment containing an in-frame FLAG tag. This was subcloned into pFastBac 1 (Invitrogen). The COX-2 FLAG plasmid was recombined into the baculovirus genome according to the BAC-to-BAC protocol described by Invitrogen. Transfection into Spodoptera frugiperda (Sf9) insect cells was performed using Cellfectin (Invitrogen), according to the manufacturer's protocol. Super Sf9 cells were cultured in EX420 media (SAFC Biosciences) to a density of approximately 1.5×10^6 cells/mL within a wave bioreactor. Recombinant virus was added at a Multiplicity of Infection (MOI) of 5 and the culture was allowed to continue for 3 days. Cells were harvested using a continuous feed centrifuge run at 2500 g at a rate of approximately 2 L/min with cooling. The resultant cell slurry was re-centrifuged in pots (2500 g, 20 min, 4° C.) and the cell paste was stored at −80° C. 342 g of cell paste was re-suspended to a final volume of 1600 mL in a buffer of 20 mM Tris-Cl pH 7.4, 150 mM NaCl, 0.1 mM EDTA, 1.3% w/v n-octyl-[…] containing 20 Complete EDTA-free Protease Inhibitor Cocktail tablets (Roche Applied Science). […]
# T1 sequence (O60760 whole entry): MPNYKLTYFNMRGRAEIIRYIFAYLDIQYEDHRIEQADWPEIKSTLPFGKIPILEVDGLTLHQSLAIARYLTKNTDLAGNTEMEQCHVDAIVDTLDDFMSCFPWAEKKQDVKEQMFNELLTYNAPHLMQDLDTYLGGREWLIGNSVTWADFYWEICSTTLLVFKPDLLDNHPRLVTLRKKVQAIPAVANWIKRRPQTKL
row,Compound,IC50
1,"CC1CCN1c1ccc2cc(C(=O)N[C@H]3CC[C@H](C(C)(C)O)CC3)cnc2n1 (mixture of isomers) [Example 7, N-(trans-4-(2-Hydroxypropan-2-yl)cyclohexyl)-7-(2-methylazetidin-1-yl)-1,8-naphthyridine-3-carboxamide]",10 to 79.4 nM
2,"CC1CCN1c1cc2ncc(C(=O)N[C@H]3CC[C@H](C(C)(C)O)CC3)cc2cn1 (mixture of isomers) [Example 11, N-(trans-4-(2-Hydroxypropan-2-yl)cyclohexyl)-7-(2-methylazetidin-1-yl)-1,6-naphthyridine-3-carboxamide]",10 to 79.4 nM
3,"CC(C)(O)C1CC2(CC(NC(=O)c3cnc4cc(C5CC5)ncc4c3)C2)C1 (racemic) [Example 34, 7-Cyclopropyl-N-(6-(2-hydroxypropan-2-yl)spiro[3.3]heptan-2-yl)-1,6-naphthyridine-3-carboxamide]",< 10 nM
4,"CC(N[C@H]1CC[C@H](NC(=O)c2cnc3cc(C4CC4)ncc3c2)CC1)C(F)F (mixture of isomers) [Example 39, 7-cyclopropyl-N-(trans-4-((1,1-difluoropropan-2-yl)amino)cyclohexyl)-1,6-naphthyridine-3-carboxamide]",10 to 79.4 nM
5,"CC(C)(O)C1CC2(CC(NC(=O)c3cnc4nc(C5CC5)ccc4c3)C2)C1 (racemic) [Example 49, 7-Cyclopropyl-N-(6-(2-hydroxypropan-2-yl)spiro[3.3]heptan-2-yl)-1,8-naphthyridine-3-carboxamide]",10 to 79.4 nM
6,"CC(N[C@H]1CC[C@H](NC(=O)c2cnc3nc(C4CC4)ccc3c2)CC1)C(F)F (mixture of isomers) [Example 57, 7-Cyclopropyl-N-(trans-4-((1,1-difluoropropan-2-yl)amino)cyclohexyl)-1,8-naphthyridine-3-carboxamide]",10 to 79.4 nM
7,"CC(C)(O)[C@H]1CC[C@H](NC(=O)c2cnc3ccncc3c2)CC1 [Example 1, N-(trans-4-(2-Hydroxypropan-2-yl)cyclohexyl)-1,6-naphthyridine-3-carboxamide]",1260 to 10000 nM
8,"CC(C)(O)[C@H]1CC[C@H](NC(=O)c2cnc3ncccc3c2)CC1 [Example 2, N-(trans-4-(2-Hydroxypropan-2-yl)cyclohexyl)-1,8-naphthyridine-3-carboxamide]",1260 to 10000 nM
9,"CC(C)(O)[C@H]1CC[C@H](NC(=O)c2cnc3cc(N4CC(F)C4)ncc3c2)CC1 [Example 3, 7-(3-Fluoroazetidin-1-yl)-N-(trans-4-(2-hydroxypropan-2-yl)cyclohexyl)-1,6-naphthyridine-3-carboxamide]",10 to 79.4 nM
10,"CC(C)(O)[C@H]1CC[C@H](NC(=O)c2cnc3cc(N4CCC4)ncc3c2)CC1 [Example 4, 7-(Azetidin-1-yl)-N-(trans-4-(2-hydroxypropan-2-yl)cyclohexyl)-1,6-naphthyridine-3-carboxamide]",< 10 nM
11,"CC(C)(O)[C@H]1CC[C@H](NC(=O)c2cnc3nc(N4CCC4)ccc3c2)CC1 [Example 5, 7-(Azetidin-1-yl)-N-(trans-4-(2-hydroxypropan-2-yl)cyclohexyl)-1,8-naphthyridine-3-carboxamide]",< 10 nM
12,"CC(C)(O)[C@H]1CC[C@H](NC(=O)c2cnc3nc(N4CC(F)C4)ccc3c2)CC1 [Example 6, 7-(3-Fluoroazetidin-1-yl)-N-(trans-4-(2-hydroxypropan-2-yl)cyclohexyl)-1,8-naphthyridine-3-carboxamide]",10 to 79.4 nM
13,"C[C@@H]1CCN1c1ccc2cc(C(=O)N[C@H]3CC[C@H](C(C)(C)O)CC3)cnc2n1 [Example 8, N-(trans-4-(2-Hydroxypropan-2-yl)cyclohexyl)-7-((R)-2-methylazetidin-1-yl)-1,8-naphthyridine-3-carboxamide]",100 to 1000 nM
14,"C[C@H]1CCN1c1ccc2cc(C(=O)N[C@H]3CC[C@H](C(C)(C)O)CC3)cnc2n1 [Example 9, N-(trans-4-(2-Hydroxypropan-2-yl)cyclohexyl)-7-((S)-2-methylazetidin-1-yl)-1,8-naphthyridine-3-carboxamide]",< 10 nM
15,"CC(C)(O)[C@H]1CC[C@H](NC(=O)c2cnc3cc(C4CC4)ncc3c2)CC1 [Example 10, 7-Cyclopropyl-N-((trans)-4-(2-hydroxypropan-2-yl)cyclohexyl)-1,6-naphthyridine-3-carboxamide]",10 to 79.4 nM
16,"C[C@@H]1CCN1c1cc2ncc(C(=O)N[C@H]3CC[C@H](C(C)(C)O)CC3)cc2cn1 [Example 12, N-(trans-4-(2-Hydroxypropan-2-yl)cyclohexyl)-7-((R)-2-methylazetidin-1-yl)-1,6-naphthyridine-3-carboxamide]",100 to 1000 nM
17,"C[C@H]1CCN1c1cc2ncc(C(=O)N[C@H]3CC[C@H](C(C)(C)O)CC3)cc2cn1 [Example 13, N-(trans-4-(2-Hydroxypropan-2-yl)cyclohexyl)-7-((S)-2-methylazetidin-1-yl)-1,6-naphthyridine-3-carboxamide]",< 10 nM
18,"CC(C)(O)[C@H]1CC[C@H](NC(=O)c2cnc3cc(NC4CC4)ncc3c2)CC1 [Example 14, 7-(Cyclopropylamino)-N-(trans-4-(2-hydroxypropan-2-yl)cyclohexyl)-1,6-naphthyridine-3-carboxamide]",10 to 79.4 nM
19,"C[C@]1(O)C[C@@H](NC(=O)c2cnc3cc(N4CCC4)ncc3c2)C1 [Example 15, 7-(Azetidin-1-yl)-N-((1s,3s)-3-hydroxy-3-methylcyclobutyl)-1,6-naphthyridine-3-carboxamide]",10 to 79.4 nM
20,"CC(C)(O)[C@H]1CC[C@H](NC(=O)c2cnc3nc(NCC(F)F)ccc3c2)CC1 [Example 16, 7-((2,2-Difluoroethyl)amino)-N-(trans-4-(2-hydroxypropan-2-yl)cyclohexyl)-1,8-naphthyridine-3-carboxamide]",100 to 1000 nM
21,"CC(C)(O)[C@H]1CC[C@H](NC(=O)c2cnc3nc(NCC(F)(F)F)ccc3c2)CC1 [Example 17, N-(trans-4-(2-Hydroxypropan-2-yl)cyclohexyl)-7-((2,2,2-trifluoroethyl)amino)-1,8-naphthyridine-3-carboxamide]",100 to 1000 nM
22,"C[C@]1(O)C[C@@H](NC(=O)c2cnc3nc(N4CCC4)ccc3c2)C1 [Example 18, 7-(Azetidin-1-yl)-N-((1s,3s)-3-hydroxy-3-methylcyclobutyl)-1,8-naphthyridine-3-carboxamide]",100 to 1000 nM
23,"O=C(N[C@H]1CCNC1=O)c1cnc2nc(N3CCC3)ccc2c1 [Example 19, (S)-7-(Azetidin-1-yl)-N-(2-oxopyrrolidin-3-yl)-1,8-naphthyridine-3-carboxamide]",10 to 79.4 nM
24,"O=C(N[C@H]1CCNC1=O)c1cnc2cc(N3CCC3)ncc2c1 [Example 20, (S)-7-(Azetidin-1-yl)-N-(2-oxopyrrolidin-3-yl)-1,6-naphthyridine-3-carboxamide]",10 to 79.4 nM
25,"C[C@H]1CCN1c1cc2ncc(C(=O)N[C@H]3CCNC3=O)cc2cn1 [Example 22, 7-((S)-2-Methylazetidin-1-yl)-N—((S)-2-oxopyrrolidin-3-yl)-1,6-naphthyridine-3-carboxamide]",10 to 79.4 nM
26,"C[C@H]1CCN1c1cc2ncc(C(=O)N[C@H]3C[C@@](C)(O)C3)cc2cn1 [Example 23, N-((1s,3R)-3-Hydroxy-3-methylcyclobutyl)-7-((S)-2-methylazetidin-1-yl)-1,6-naphthyridine-3-carboxamide]",100 to 1000 nM
